The record followed here is paper PMC7529893, “Structural basis for substrate recognition and chemical inhibition of oncogenic MAGE ubiquitin ligases” (Nature Communications, 2020).

Structures are written as SMILES.

The first test deals with T1, MAGE-A11:PCF11 interaction (GST-MAGE-A11 and FAM-PCF11_4) (Homo sapiens, UniProt P43364).
T1 construct: GST-MAGE-A11 MHD (human MAGE-A11 MHD amino acid 218-429); made in house; host or cells: E. coli BL21(DE3)
T1 sequence (P43364 218-429): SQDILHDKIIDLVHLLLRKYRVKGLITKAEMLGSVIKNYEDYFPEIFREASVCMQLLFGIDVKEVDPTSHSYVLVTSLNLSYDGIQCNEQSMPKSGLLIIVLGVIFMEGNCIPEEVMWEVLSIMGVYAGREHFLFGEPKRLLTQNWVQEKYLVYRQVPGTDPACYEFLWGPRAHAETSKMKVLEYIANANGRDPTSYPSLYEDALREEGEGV
In words: TR-FRET primary / single point screen at 15 µM. The note with it: single point TR-FRET screening of 797 quinoline compounds against MAGE-A11:PCF11. The class given is binding. In short, it runs like this: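 Single-point screen at 15 µM final compound in 50 mM Tris pH 7.5, 20 mM MgCl2, 0.1 mg/ml BSA, 1 mM DTT, with 200 nM FAM-PCF11_4, 5 nM Tb-anti-GST and 5 nM GST-MAGE-A11. After 90 min at room temperature, the 520/490 nm TR-FRET ratio (340 nm excitation) gave %Inhibition against no-MAGE-A11 and DMSO controls.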
A general note: Time-resolved FRET reads energy transfer from a long-lived donor to a nearby acceptor.
`CCCN(CCCNc1c2ccc(Cl)cc2nc2ccc(OC)cc12)Cc1ccc(C(=O)OC)cc1` [SJ000523018]: the “percent inhibition (TR-FRET)” value is listed as -118.624.

With `CCCN(CCCNc1c2ccc(Cl)cc2nc2ccc(OC)cc12)Cc1ccc(-c2ccccc2[N+](=O)[O-])o1` [SJ000523019], the “percent inhibition (TR-FRET)” value is -102.758.

As for `CCCN(CCCNc1c2ccc(Cl)cc2nc2ccc(OC)cc12)Cc1ccc(-c2cccc(Cl)c2)o1` [SJ000523020], the “percent inhibition (TR-FRET)” value is on record as -169.736.

As to `CCCN(CCCNc1c2ccc(Cl)cc2nc2ccc(OC)cc12)Cc1ccc([N+](=O)[O-])o1` [SJ000523022], the “percent inhibition (TR-FRET)” value was -329.654.

`COc1ccc2nc3cc(Cl)ccc3c(NCCCNCc3ccncc3)c2c1` [SJ000523023]: the “percent inhibition (TR-FRET)” value is given as -127.586.

In the case of `COc1ccc2nc3cc(Cl)ccc3c(NCCCNCc3ccccn3)c2c1` [SJ000523024], the “percent inhibition (TR-FRET)” value was -255.258.

As to `COc1ccc2nc3cc(Cl)ccc3c(NCCCNCCCSC)c2c1` [SJ000523025], the “percent inhibition (TR-FRET)” value was -336.863.

Consider `COc1ccc2nc3cc(Cl)ccc3c(NCCCNCc3ccsc3)c2c1` [SJ000523026], for which the “percent inhibition (TR-FRET)” value is reported as -353.834.

Turning to `COc1ccc2nc3cc(Cl)ccc3c(NCCCNCCC(C)c3ccccc3)c2c1` (stereo not drawn) [SJ000523027], the “percent inhibition (TR-FRET)” value was -340.253.

With `COc1ccc2nc3cc(Cl)ccc3c(NCCCNCc3ccc(C)s3)c2c1` [SJ000523029], the “percent inhibition (TR-FRET)” value is -304.796.

For `COc1ccc2nc3cc(Cl)ccc3c(NCCCNCc3ccc(Br)o3)c2c1` [SJ000523030], the “percent inhibition (TR-FRET)” value is recorded as -219.419.

On to `COc1ccc2nc3cc(Cl)ccc3c(NCCCNCc3ccco3)c2c1` [SJ000523032], for which the “percent inhibition (TR-FRET)” value is on record as -165.325.

Turning to `COc1ccc(CNCCCNc2c3ccc(Cl)cc3nc3ccc(OC)cc23)cc1` [SJ000523033], the “percent inhibition (TR-FRET)” value is -338.862.

As to `COc1ccc2nc3cc(Cl)ccc3c(NCCCNCc3ccccc3F)c2c1` [SJ000523034], the “percent inhibition (TR-FRET)” value is on record as -353.834.

Turning to `COc1ccc2nc3cc(Cl)ccc3c(NCCCNCc3ccc(F)cc3)c2c1` [SJ000523035], the “percent inhibition (TR-FRET)” value is given as -398.22.

As for `COc1ccc2nc3cc(Cl)ccc3c(NCCCNCc3cccc(C#N)c3)c2c1` [SJ000523037], the “percent inhibition (TR-FRET)” value is given as -333.152.

With `COc1ccc2nc3cc(Cl)ccc3c(NCCCNCc3ccc4ccccc4c3)c2c1` [SJ000523038], the “percent inhibition (TR-FRET)” value is -109.452.

On to `Cc1cc(C)c(CN2CCC(Nc3ccnc4cc(Cl)ccc34)CC2)c(C)c1` [SJ000523084], for which the “percent inhibition (TR-FRET)” value is given as 11.7451.

On to `Clc1ccc2c(NC3CCN(CC4CCCCC4)CC3)ccnc2c1` [SJ000523085], for which the “percent inhibition (TR-FRET)” value came to 15.4273.

Take `CCC(CC)CN1CCC(Nc2ccnc3cc(Cl)ccc23)CC1` [SJ000523086]: the “percent inhibition (TR-FRET)” value amounted to 9.754.

In the case of `Clc1ccc2c(NC3CCN(Cc4ccc5c(c4)OCO5)CC3)ccnc2c1` [SJ000523087], the “percent inhibition (TR-FRET)” value is 7.6432.

For `CCCCCN1CCC(Nc2ccnc3cc(Cl)ccc23)CC1` [SJ000523088], the “percent inhibition (TR-FRET)” value is given as 12.1652.

Take `Fc1ccc(CN2CCC(Nc3ccnc4cc(Cl)ccc34)CC2)cc1F` [SJ000523089]: the “percent inhibition (TR-FRET)” value was -1.958.

For `COc1ccc(CN2CCC(Nc3ccnc4cc(Cl)ccc34)CC2)cc1` [SJ000523090], the “percent inhibition (TR-FRET)” value was 23.7178.

For the compound `Fc1ccccc1CN1CCC(Nc2ccnc3cc(Cl)ccc23)CC1` [SJ000523091], the “percent inhibition (TR-FRET)” value is recorded as -0.9977.

The same test, now with this note: single point TR-FRET screening of quinoline compounds against MAGE-A11:PCF11; 15 µM.
Turning to `CCCN(CCCNc1ccnc2cc(Cl)ccc12)Cc1cccc(C(F)(F)F)c1` [SJ000523013], the “percent inhibition (TR-FRET)” value is 17.481.

As to `CCCN(CCCNc1ccnc2cc(Cl)ccc12)Cc1cccn1C` [SJ000523014], the “percent inhibition (TR-FRET)” value worked out at 22.7145.

On to `CCCN(CCCNc1ccnc2cc(Cl)ccc12)CC1CCOC1` (stereo not drawn) [SJ000523016], for which the “percent inhibition (TR-FRET)” value is 9.6638.

`CCCN(CCCCCC(=O)OC)CCCNc1ccnc2cc(Cl)ccc12` [SJ000523017]: the “percent inhibition (TR-FRET)” value is reported as 14.3011.

On to `CCCN(CCCNc1c2ccc(Cl)cc2nc2ccc(OC)cc12)Cc1c(Cl)ccc(Cl)c1Cl` [SJ000523021], for which the “percent inhibition (TR-FRET)” value worked out at 40.005.

For the compound `COc1ccc2nc3cc(Cl)ccc3c(NCCCNCc3ccc(N(C)C)c4ccccc34)c2c1` [SJ000523028], the “percent inhibition (TR-FRET)” value is -1.532.

`COc1ccc2nc3cc(Cl)ccc3c(NCCCNCc3ccccc3N)c2c1` [SJ000523031]: the “percent inhibition (TR-FRET)” value is on record as -57.1504.

In the case of `COc1ccc2nc3cc(Cl)ccc3c(NCCCNCc3ccc(Cl)c([N+](=O)[O-])c3)c2c1` [SJ000523036], the “percent inhibition (TR-FRET)” value was -95.379.

As for `CCCN(CCCNc1ccnc2cc(Cl)ccc12)Cc1ccc(-c2ccccc2)cc1` [SJ000523039], the “percent inhibition (TR-FRET)” value is given as 30.2293.

In the case of `CCCN(CCCNc1ccnc2cc(Cl)ccc12)Cc1ccc2ccccc2c1` [SJ000523040], the “percent inhibition (TR-FRET)” value is on record as 32.8503.

`CCCN(CCCNc1ccnc2cc(Cl)ccc12)Cc1cccc(C)c1` [SJ000523041]: the “percent inhibition (TR-FRET)” value stood at 28.5489.

`CCCN(CCCNc1ccnc2cc(Cl)ccc12)Cc1ccc(C(=O)OC)cc1` [SJ000523042]: the “percent inhibition (TR-FRET)” value is on record as 16.7163.

For the compound `CCCN(CCCNc1ccnc2cc(Cl)ccc12)Cc1ccc(Cl)cc1Cl` [SJ000523043], the “percent inhibition (TR-FRET)” value amounted to 12.0952.

In the case of `CCCN(CCCNc1ccnc2cc(Cl)ccc12)Cc1ccc(-c2ccccc2[N+](=O)[O-])o1` [SJ000523044], the “percent inhibition (TR-FRET)” value was 9.266.

`CCCN(CCCNc1ccnc2cc(Cl)ccc12)Cc1ccc(-c2cccc(Cl)c2)o1` [SJ000523045]: the “percent inhibition (TR-FRET)” value worked out at 16.2262.

As to `CCCN(CCCNc1ccnc2cc(Cl)ccc12)Cc1c(Cl)ccc(Cl)c1Cl` [SJ000523046], the “percent inhibition (TR-FRET)” value is given as 17.7459.

As for `CCCN(CCCNc1ccnc2cc(Cl)ccc12)Cc1ccc([N+](=O)[O-])o1` [SJ000523047], the “percent inhibition (TR-FRET)” value turned out to be 9.575.

Consider `CCCCCCN(CCC)CCCNc1ccnc2cc(Cl)ccc12` [SJ000523048], for which the “percent inhibition (TR-FRET)” value is 1.317.

`Clc1ccc2c(NCCCNCc3ccncc3)ccnc2c1` [SJ000523049]: the “percent inhibition (TR-FRET)” value stood at 6.077.

For the compound `Clc1ccc2c(NCCCNCc3ccccn3)ccnc2c1` [SJ000523050], the “percent inhibition (TR-FRET)” value was found to be 4.744.

Consider `CSCCCNCCCNc1ccnc2cc(Cl)ccc12` [SJ000523051], for which the “percent inhibition (TR-FRET)” value worked out at 14.9659.

With `Clc1ccc2c(NCCCNCc3ccsc3)ccnc2c1` [SJ000523052], the “percent inhibition (TR-FRET)” value amounted to 15.2459.

Regarding `CC(CCNCCCNc1ccnc2cc(Cl)ccc12)c1ccccc1` (stereo not drawn) [SJ000523053], the “percent inhibition (TR-FRET)” value is listed as 19.0144.

Take `CCCCCNCCCNc1ccnc2cc(Cl)ccc12` [SJ000523057]: the “percent inhibition (TR-FRET)” value is listed as 25.8183.

Take `Cc1c(CNCCCNc2ccnc3cc(Cl)ccc23)c(=O)n(-c2ccccc2)n1C` [SJ000523058]: the “percent inhibition (TR-FRET)” value came to 5.584.

Consider `O=[N+]([O-])c1ccccc1-c1ccc(CNCCCNc2ccnc3cc(Cl)ccc23)o1` [SJ000523068], for which the “percent inhibition (TR-FRET)” value was 21.6545.

Take `Clc1cccc(-c2ccc(CNCCCNc3ccnc4cc(Cl)ccc34)o2)c1` [SJ000523069]: the “percent inhibition (TR-FRET)” value turned out to be 33.5128.

On to `CCCN(CCCNc1ccnc2cc(C(F)(F)F)ccc12)Cc1ccc(F)cc1` [SJ000523070], for which the “percent inhibition (TR-FRET)” value was 26.4363.

Consider `CCCN(CCCNc1ccnc2cc(C(F)(F)F)ccc12)Cc1ccccc1[N+](=O)[O-]` [SJ000523071], for which the “percent inhibition (TR-FRET)” value is -7.745.

For the compound `CCCN(CCCNc1ccnc2cc(C(F)(F)F)ccc12)Cc1ccccc1OC` [SJ000523072], the “percent inhibition (TR-FRET)” value is recorded as 32.6098.

For the compound `CCCN(CCCNc1ccnc2cc(C(F)(F)F)ccc12)Cc1ccccc1C(=O)O` [SJ000523073], the “percent inhibition (TR-FRET)” value is 16.8563.

Take `CCCN(CCCNc1ccnc2cc(C(F)(F)F)ccc12)Cc1cccc2ccccc12` [SJ000523074]: the “percent inhibition (TR-FRET)” value came to 14.3161.

On to `CCCN(CCCNc1ccnc2cc(C(F)(F)F)ccc12)Cc1ccc2ccccc2c1` [SJ000523075], for which the “percent inhibition (TR-FRET)” value is 11.3882.

For `CCCN(CCCNc1ccnc2cc(C(F)(F)F)ccc12)Cc1cccc(C)c1` [SJ000523076], the “percent inhibition (TR-FRET)” value turned out to be 20.1719.

`CCCN(CCCNc1ccnc2cc(C(F)(F)F)ccc12)Cc1ccc(N(C)C)cc1` [SJ000523077]: the “percent inhibition (TR-FRET)” value came out at 23.7127.

For the compound `CCCN(CCCNc1ccnc2cc(C(F)(F)F)ccc12)Cc1ccc(Cl)cc1Cl` [SJ000523078], the “percent inhibition (TR-FRET)” value amounted to 3.83.

For `CCCN(CCCNc1ccnc2cc(C(F)(F)F)ccc12)Cc1ccc(OC)c(OC)c1` [SJ000523079], the “percent inhibition (TR-FRET)” value stood at 14.6566.

For `CCCN(CCCNc1ccnc2cc(C(F)(F)F)ccc12)CCCc1ccccc1` [SJ000523080], the “percent inhibition (TR-FRET)” value worked out at 28.0024.

Turning to `CCCN(CCCNc1ccnc2cc(C(F)(F)F)ccc12)CC(C)CC` (stereo not drawn) [SJ000523081], the “percent inhibition (TR-FRET)” value is 22.2827.

For the compound `CCCN(CCCNc1ccnc2cc(C(F)(F)F)ccc12)Cc1cc(C)ccc1C` [SJ000523082], the “percent inhibition (TR-FRET)” value amounted to 21.738.

Take `CCCCCCN(CCC)CCCNc1ccnc2cc(C(F)(F)F)ccc12` [SJ000523083]: the “percent inhibition (TR-FRET)” value stood at 34.9477.
